In one data set the target is ErbB4 (Homo sapiens, UniProt Q15303). Kind of data set: ErbB4 kinase inhibition (Table 1). In kind it is biochemical.
In another data set the target is Syk (Homo sapiens, UniProt P43405). As to the kind of experiment: Syk kinase inhibition (Table 1).
The target in data set [1] is T1, EGFR (Homo sapiens, UniProt P00533). Kind of data set: EGFR kinase inhibition (Table 1).
Data set [2] deals with T2, CYP3A4 (Homo sapiens, UniProt P08684). As to conditions: in words; for CYP3A4 inhibitor potency after preincubation with the test compound, compared with lapatinib: time dependent arm.
T2 sequence (P08684 whole entry): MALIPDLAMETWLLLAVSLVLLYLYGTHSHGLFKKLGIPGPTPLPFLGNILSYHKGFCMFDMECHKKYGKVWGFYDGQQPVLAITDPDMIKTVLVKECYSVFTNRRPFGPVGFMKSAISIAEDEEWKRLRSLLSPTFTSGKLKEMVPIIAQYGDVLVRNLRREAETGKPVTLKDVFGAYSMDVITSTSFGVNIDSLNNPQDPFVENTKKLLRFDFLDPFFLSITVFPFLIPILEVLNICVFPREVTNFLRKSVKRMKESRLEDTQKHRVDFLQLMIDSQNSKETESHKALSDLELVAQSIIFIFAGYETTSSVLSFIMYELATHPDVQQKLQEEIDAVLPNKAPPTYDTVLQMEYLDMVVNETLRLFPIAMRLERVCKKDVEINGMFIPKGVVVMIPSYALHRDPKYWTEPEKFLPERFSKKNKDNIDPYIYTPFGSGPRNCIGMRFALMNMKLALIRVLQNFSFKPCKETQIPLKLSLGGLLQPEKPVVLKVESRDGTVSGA
Data set [3] addresses T2, CYP3A4.
In data set [4] the target is T3, human ErbB2 (Homo sapiens, UniProt P04626). Kind of data set: ErbB2 kinase assay, FRET peptide substrate (Example 3). It counts as biochemical. The settings on record: ErbB2 or EGFR (either kinase); in words. As to the method:
Kinase assays were performed using standard protocols known to those skilled in the art. In brief, kinase, peptide substrate labeled with both coumarin (donor fluorophore) and fluorescein (acceptor fluorophore), ATP, and test compound are incubated together in a kinase reaction buffer. Typically, the reaction was stopped by development reagent (protease) with certain dilution factor after 2 hours. The plate was analyzed in Perkin Elmer Envision by FRET mode. The high ratio of coumarin/fluorescein represents 0% phosphorylation rate while low ratio of coumarin/fluorescein represents 100% phosphorylation rate.

In data set [5] the target is T3, human ErbB2. As to the kind of experiment: ErbB2 kinase assay at RBC, 33P-ATP filter binding (Example 5). In kind it is biochemical. The settings on record: in words. As to the method: The synthesis and biochemical testing of these compounds was completed using alternate CROs as a control for characterizing compounds.
Kinase assays were performed at RBC using standard protocols known to those skilled in the art. In brief, kinase, any required cofactors, substrate in DMSO, and kinase reaction mixture (by acoustic technology; Echo 550; nanoliter range) were incubated for 20 minutes at room temperature. 33P-ATP was added to initiate the reaction, which was incubated for 2 hours at room temperature.

The target of data set [6] is T1, EGFR. Kind of data set: EGFR kinase assay at RBC, 33P-ATP filter binding (Example 5). In kind it is biochemical. As to conditions: in words. As to the method:
The synthesis and biochemical testing of these compounds was completed using alternate CROs as a control for characterizing compounds. Kinase assays were performed at RBC using standard protocols known to those skilled in the art. In brief, kinase, any required cofactors, substrate in DMSO, and kinase reaction mixture (by acoustic technology; Echo 550; nanoliter range) were incubated for 20 minutes at room temperature. 33P-ATP was added to initiate the reaction, which was incubated for 2 hours at room temperature.

Data set [7] concerns BT-474 cells. As to the kind of experiment: Cytotoxicity against BT-474 cells, CellTiter 96 (Example 4). It counts as cell-based, human. The settings on record: in words. As to the method: (§1) All of the test compounds were kept between 4° C. to 8° C. in solid form or as solution in DMSO. The cell lines BT-474 and NCI-N87 were obtained from the ATCC. The cell lines were maintained in liquid nitrogen. Cell lines were prepared by thawing a 1 mL vial of the cell line and splitting it into two T-75 flasks with 10 mL of the appropriate media. BT-474 and NCI-N87 both utilized RPMI 1640 with varying glucose content (1 g/L for BT-474 and 4.5 g/L for NCI-N87). The cell lines were trypsinized and split into two T-150 flasks each time the cell lines reached 70-90% confluency. When there were at least two confluent T-150 flasks of cell lines available, cultures were trypsinized and the cells enumerated using a hemocytometer and added to a 96-well microtiter plate at 1.5×10^5 cells/mL. The 96-well plates were then incubated at 37° C. with 5% CO2 for 24 hours to allow enough time for the cells to adhere to the wells. […] Lapatinib and media without the test compounds were used as controls. All 96-well plates were incubated at 37° C. with 5% CO2 for 3 days with plates containing BT-474 and for 6 days with plates containing NCI-N87. […] After recovery, cell viability was determined using the CellTiter 96® Aqueous One Solution Cell Proliferation Assay kit (Promega). The optical density (OD) was read using a SPECTRAMAX® M5 Microplate Reader (Molecular Devices) at 490 nm. […]

The next data set has as its system NCI-N87 cells. Kind of data set: Cytotoxicity against NCI-N87 cells, CellTiter 96 (Example 4). In kind it is cell-based. As to conditions: in words. As to the method: as §1
The subject of data set [8] is BT-474 cells. As to the kind of experiment: Cytotoxicity against BT-474 cells at RBC, Cell Titer-Glo 2.0 (Example 6). In kind it is cell-based, human. As to conditions: in words. As to the method: All of the test compounds were kept between 4° C. to 8° C. in solid form or as solution in DMSO. The cell line BT-474 was obtained from the ATCC. Test compounds were dissolved in DMSO (10 mM stock). Cell Titer-Glo® 2.0 Luminescent cell viability assay reagent was obtained from Promega. BT474 human breast cancer cell line was grown in Hybri-care medium supplemented with 1.5 g/L sodium bicarbonate and 10% FBS. 100 μg/ml penicillin and 100 μg/ml streptomycin were added to all culture media. Cultures were maintained at 37° C. in a humidified atmosphere of 5% CO2 and 95% air. Test compounds in DMSO were added in a source plate. 25 nL of test compounds was delivered from the source plate to each well of the 384-well cell culture plates by Echo 550. 25 μl of culture medium containing 1000 cells for each cell line was added to the wells of the cell culture plates. […] The contents were mixed on an orbital shaker for 2 minutes and incubated at room temperature for 10 minutes to stabilize luminescent signal Luminescence was recorded by Envision 2104 Multilabel Reader (Perkin Elmer). The number of viable cells in culture was determined based on quantization of the ATP present in each culture well. The IC50 values were calculated and the IC50 curves were plotted using the GraphPad Prism 4 program based on a sigmoidal dose-response equation.

Some results are limits rather than exact numbers.

T3 sequence (P04626 23-1255): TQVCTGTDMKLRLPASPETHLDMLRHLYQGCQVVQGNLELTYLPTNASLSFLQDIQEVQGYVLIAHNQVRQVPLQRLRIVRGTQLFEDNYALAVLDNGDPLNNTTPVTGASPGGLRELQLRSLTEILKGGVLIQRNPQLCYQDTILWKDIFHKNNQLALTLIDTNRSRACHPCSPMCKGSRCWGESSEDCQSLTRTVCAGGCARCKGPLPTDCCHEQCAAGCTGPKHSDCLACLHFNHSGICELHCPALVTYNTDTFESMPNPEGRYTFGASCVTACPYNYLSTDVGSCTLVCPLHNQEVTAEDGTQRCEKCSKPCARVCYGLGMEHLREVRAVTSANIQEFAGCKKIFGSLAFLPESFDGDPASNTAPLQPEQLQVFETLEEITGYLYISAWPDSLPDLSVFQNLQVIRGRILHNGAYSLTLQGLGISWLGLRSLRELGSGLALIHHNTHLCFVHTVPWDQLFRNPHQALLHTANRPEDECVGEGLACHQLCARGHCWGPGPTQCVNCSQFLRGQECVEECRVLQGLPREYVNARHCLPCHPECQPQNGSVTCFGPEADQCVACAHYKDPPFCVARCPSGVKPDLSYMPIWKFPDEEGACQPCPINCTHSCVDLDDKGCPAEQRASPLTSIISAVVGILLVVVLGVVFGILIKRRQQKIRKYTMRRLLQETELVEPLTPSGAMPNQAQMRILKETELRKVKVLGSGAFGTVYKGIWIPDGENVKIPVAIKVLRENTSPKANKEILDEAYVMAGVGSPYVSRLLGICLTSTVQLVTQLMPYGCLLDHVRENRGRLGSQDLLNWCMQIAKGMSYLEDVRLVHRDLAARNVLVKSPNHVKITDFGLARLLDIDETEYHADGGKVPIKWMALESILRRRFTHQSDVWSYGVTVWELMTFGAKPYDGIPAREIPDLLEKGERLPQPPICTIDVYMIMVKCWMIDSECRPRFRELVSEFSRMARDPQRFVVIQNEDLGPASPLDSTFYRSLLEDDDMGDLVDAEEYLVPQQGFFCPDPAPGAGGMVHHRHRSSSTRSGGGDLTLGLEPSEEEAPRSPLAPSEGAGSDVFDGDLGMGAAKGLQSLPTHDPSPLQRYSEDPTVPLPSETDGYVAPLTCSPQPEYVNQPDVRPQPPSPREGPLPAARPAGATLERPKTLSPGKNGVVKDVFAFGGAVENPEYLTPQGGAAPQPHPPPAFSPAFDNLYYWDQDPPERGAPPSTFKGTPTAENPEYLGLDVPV
T1 sequence (P00533 25-1210): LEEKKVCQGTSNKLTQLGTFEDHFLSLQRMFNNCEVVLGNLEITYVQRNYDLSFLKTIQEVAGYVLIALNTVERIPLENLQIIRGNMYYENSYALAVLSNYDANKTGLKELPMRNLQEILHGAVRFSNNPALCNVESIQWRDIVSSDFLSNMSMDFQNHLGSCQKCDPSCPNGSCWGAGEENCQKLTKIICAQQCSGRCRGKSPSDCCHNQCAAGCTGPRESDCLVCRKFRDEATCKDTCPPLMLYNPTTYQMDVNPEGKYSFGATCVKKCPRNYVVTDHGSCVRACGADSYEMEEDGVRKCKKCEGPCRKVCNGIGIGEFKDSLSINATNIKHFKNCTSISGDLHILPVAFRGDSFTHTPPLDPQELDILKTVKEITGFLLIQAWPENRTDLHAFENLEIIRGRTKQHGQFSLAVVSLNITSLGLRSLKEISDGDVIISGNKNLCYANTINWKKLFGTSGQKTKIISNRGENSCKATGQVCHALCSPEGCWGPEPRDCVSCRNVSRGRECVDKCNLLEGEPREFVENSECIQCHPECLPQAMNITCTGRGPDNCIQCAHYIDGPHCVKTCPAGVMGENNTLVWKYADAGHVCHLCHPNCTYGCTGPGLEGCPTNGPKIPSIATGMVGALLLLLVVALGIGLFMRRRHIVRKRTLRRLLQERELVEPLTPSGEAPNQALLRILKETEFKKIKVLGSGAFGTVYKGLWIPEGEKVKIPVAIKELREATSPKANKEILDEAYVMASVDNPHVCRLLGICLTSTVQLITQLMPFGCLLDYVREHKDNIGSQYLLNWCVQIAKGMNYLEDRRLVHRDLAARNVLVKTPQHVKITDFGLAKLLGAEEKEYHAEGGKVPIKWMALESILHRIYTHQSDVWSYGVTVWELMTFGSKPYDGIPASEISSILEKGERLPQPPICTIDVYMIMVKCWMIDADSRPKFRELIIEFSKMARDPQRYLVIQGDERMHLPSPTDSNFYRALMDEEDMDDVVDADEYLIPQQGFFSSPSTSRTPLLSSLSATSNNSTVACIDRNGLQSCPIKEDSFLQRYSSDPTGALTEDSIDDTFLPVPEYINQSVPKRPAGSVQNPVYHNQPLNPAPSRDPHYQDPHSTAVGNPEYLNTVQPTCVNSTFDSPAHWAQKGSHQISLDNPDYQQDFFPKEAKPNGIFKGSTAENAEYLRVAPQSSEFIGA
Sequence of ErbB4 (Q15303 26-1308, species assumed): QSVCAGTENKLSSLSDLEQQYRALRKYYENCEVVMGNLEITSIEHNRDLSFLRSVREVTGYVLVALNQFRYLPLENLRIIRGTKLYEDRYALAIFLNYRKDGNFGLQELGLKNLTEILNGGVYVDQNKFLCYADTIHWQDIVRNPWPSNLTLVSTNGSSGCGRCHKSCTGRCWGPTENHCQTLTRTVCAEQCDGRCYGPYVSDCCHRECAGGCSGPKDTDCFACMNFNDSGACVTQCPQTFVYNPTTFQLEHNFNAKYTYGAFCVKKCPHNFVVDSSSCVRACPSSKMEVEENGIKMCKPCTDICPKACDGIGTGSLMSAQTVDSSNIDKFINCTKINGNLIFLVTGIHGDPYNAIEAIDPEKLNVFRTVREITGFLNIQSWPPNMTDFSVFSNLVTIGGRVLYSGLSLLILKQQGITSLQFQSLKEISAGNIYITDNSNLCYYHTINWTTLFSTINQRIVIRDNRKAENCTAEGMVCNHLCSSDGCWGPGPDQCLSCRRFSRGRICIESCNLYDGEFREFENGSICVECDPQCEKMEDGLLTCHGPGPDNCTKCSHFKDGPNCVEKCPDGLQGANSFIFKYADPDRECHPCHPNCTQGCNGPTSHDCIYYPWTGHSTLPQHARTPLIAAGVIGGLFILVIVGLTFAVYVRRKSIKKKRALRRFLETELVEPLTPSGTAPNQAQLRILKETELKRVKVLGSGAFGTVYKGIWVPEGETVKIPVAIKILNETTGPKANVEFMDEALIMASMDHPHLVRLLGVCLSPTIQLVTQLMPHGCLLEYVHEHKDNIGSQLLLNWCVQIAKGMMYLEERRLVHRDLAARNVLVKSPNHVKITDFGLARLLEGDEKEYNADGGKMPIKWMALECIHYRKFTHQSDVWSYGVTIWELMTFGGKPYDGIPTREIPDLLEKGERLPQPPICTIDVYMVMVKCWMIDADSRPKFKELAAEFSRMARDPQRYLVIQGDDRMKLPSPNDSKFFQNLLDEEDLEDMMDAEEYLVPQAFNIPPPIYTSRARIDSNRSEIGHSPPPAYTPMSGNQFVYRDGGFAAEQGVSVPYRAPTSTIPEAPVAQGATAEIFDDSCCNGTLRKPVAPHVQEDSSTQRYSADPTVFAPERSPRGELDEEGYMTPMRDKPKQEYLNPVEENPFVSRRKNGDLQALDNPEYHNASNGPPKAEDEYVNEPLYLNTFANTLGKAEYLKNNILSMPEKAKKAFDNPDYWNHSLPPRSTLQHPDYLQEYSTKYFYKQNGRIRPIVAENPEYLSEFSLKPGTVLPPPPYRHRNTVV

With `CS(=O)(=O)CCN(O)Cc1ccc(-c2ccc3ncnc(Nc4ccc(OCc5cccc(F)c5)c(Cl)c4)c3c2)o1` [Compound 2], the IC50 was 32 nM at ErbB4, above 10000 nM on Syk and 72 nM on EGFR [1].
Consider `CS(=O)(=O)CCN(Cc1ccc(-c2ccc3ncnc(Nc4ccc(OCc5cccc(F)c5)c(Cl)c4)c3c2)o1)OC(N)=O` [Compound 3], for which, on CYP3A4 [2], the “CYP3A4 inhibitor potency compared with lapatinib” value was “less potent” and the “CYP3A4 inhibitor potency after preincubation with the test compound, compared with lapatinib” value was “less potent”.
On to `CN(C)C(=O)ON(CCS(C)(=O)=O)Cc1ccc(-c2ccc3ncnc(Nc4ccc(OCc5cccc(F)c5)c(Cl)c4)c3c2)o1` [Compound 4], for which, on CYP3A4 [2], the “CYP3A4 inhibitor potency compared with lapatinib” value is reported as “less potent” and the “CYP3A4 inhibitor potency after preincubation with the test compound, compared with lapatinib” value was “less potent”.
`COC(=O)ON(CCS(C)(=O)=O)Cc1ccc(-c2ccc3ncnc(Nc4ccc(OCc5cccc(F)c5)c(Cl)c4)c3c2)o1` [Compound 5]: the “Ratio IC50:TD***” value on CYP3A4 [3] is “++”. For the same compound, the “inhibition of ErbB2 or EGFR, potency compared with lapatinib” value at human ErbB2 [4] was “better potency than lapatinib”.
`CS(=O)(=O)CCN(CC(=O)O)Cc1ccc(-c2ccc3ncnc(Nc4ccc(OCc5cccc(F)c5)c(Cl)c4)c3c2)o1` [Compound 6]: the “Ratio IC50:TD***” value at CYP3A4 [3] is recorded as “+++”. Further, on human ErbB2 [5], the “ErbB2 inhibition potency compared with lapatinib” value is recorded as “better potency than lapatinib”. For the same compound, the “inhibition of ErbB2 or EGFR, potency compared with lapatinib” value on human ErbB2 [4] is “better potency than lapatinib”. On CYP3A4 [2], the “CYP3A4 inhibitor potency compared with lapatinib” value is listed as “less potent” and the “CYP3A4 inhibitor potency after preincubation with the test compound, compared with lapatinib” value was “less potent”. Besides, the “EGFR inhibition potency compared with lapatinib” value at EGFR [6] was “better potency than lapatinib”.
As for `CS(=O)(=O)CCN(Cc1ccc(-c2ccc3ncnc(Nc4ccc(OCc5cccc(F)c5)c(Cl)c4)c3c2)o1)S(C)(=O)=O` [Compound 7], the “Ratio IC50:TD***” value on CYP3A4 [3] was “++”. On human ErbB2 [4], the “inhibition of ErbB2 or EGFR, potency compared with lapatinib” value was “better potency than lapatinib”. Also, at CYP3A4 [2], the “CYP3A4 inhibitor potency compared with lapatinib” value is on record as “less potent” and the “CYP3A4 inhibitor potency after preincubation with the test compound, compared with lapatinib” value is reported as “less potent”. For the same compound, the “BT-474 IC50 compared with lapatinib” value in the data set with BT-474 cells [7] is listed as “lower than those observed for lapatinib”. Further, the “NCI-N87 IC50 compared with lapatinib” value in the data set with NCI-N87 cells is given as “lower than those observed for lapatinib”.
For `CC(=O)N(CCS(C)(=O)=O)Cc1ccc(-c2ccc3ncnc(Nc4ccc(OCc5cccc(F)c5)c(Cl)c4)c3c2)o1` [Compound 8], the “inhibition of ErbB2 or EGFR, potency compared with lapatinib” value at human ErbB2 [4] is on record as “better potency than lapatinib”. In addition, the “CYP3A4 inhibitor potency after preincubation with the test compound, compared with lapatinib” value on CYP3A4 [2] was “less potent”.
`CS(=O)(=O)CCN(Cc1ccc(-c2ccc3ncnc(Nc4ccc(OCc5cccc(F)c5)c(Cl)c4)c3c2)o1)C1COC1` [Compound 9]: on CYP3A4 [3], the “Ratio IC50:TD***” value is reported as “+++”. In addition, the “inhibition of ErbB2 or EGFR, potency compared with lapatinib” value against human ErbB2 [4] was “better potency than lapatinib”. For the same compound, the “BT-474 IC50 compared with lapatinib” value was “lower IC50 than lapatinib” in the data set on BT-474 cells [8] and “lower than those observed for lapatinib” in the data set on BT-474 cells [7]. For the same compound, the “CYP3A4 inhibitor potency after preincubation with the test compound, compared with lapatinib” value at CYP3A4 [2] is listed as “less potent”. For the same compound, the “NCI-N87 IC50 compared with lapatinib” value in the data set with NCI-N87 cells is recorded as “lower than those observed for lapatinib”.
With `CS(=O)(=O)CCN(Cc1ccc(-c2ccc3ncnc(Nc4ccc(OCc5cccc(F)c5)c(Cl)c4)c3c2)o1)C1CCC1` [Compound 10], the “Ratio IC50:TD***” value at CYP3A4 [3] is “+”. The “inhibition of ErbB2 or EGFR, potency compared with lapatinib” value against human ErbB2 [4] is on record as “better potency than lapatinib”. On CYP3A4 [2], the “CYP3A4 inhibitor potency compared with lapatinib” value is listed as “less potent”; the “time dependent shift of CYP3A4 inhibition compared with lapatinib” value is reported as “possible exception”; the “CYP3A4 inhibitor potency after preincubation with the test compound, compared with lapatinib” value was “less potent”.

For the origin of these results see US10273229B2, “N-substituted 4-aminoquinazoline derivatives and methods of use” (priority 2014, dated 2019).
